Data taken from publication PMC8343220, “The selectivity of α‐adrenoceptor agonists for the human α1A, α1B, and α1D‐adrenoceptors” (Pharmacology Research & Perspectives, 2021).
Like-named read-outs stand apart in the source and are kept apart here.

Tests used:
human α1B‐adrenoceptor [1] = target: T1, human α1B‐adrenoceptor (Homo sapiens, UniProt P35368); experiment: ERK1/2‐phosphorylation (Surefire Alphascreen), CHO‐α1B cells; format: cell-based
T1 construct: expressed in transfected cells; host or cells: CHO-K1
T1 sequence (P35368 1-520): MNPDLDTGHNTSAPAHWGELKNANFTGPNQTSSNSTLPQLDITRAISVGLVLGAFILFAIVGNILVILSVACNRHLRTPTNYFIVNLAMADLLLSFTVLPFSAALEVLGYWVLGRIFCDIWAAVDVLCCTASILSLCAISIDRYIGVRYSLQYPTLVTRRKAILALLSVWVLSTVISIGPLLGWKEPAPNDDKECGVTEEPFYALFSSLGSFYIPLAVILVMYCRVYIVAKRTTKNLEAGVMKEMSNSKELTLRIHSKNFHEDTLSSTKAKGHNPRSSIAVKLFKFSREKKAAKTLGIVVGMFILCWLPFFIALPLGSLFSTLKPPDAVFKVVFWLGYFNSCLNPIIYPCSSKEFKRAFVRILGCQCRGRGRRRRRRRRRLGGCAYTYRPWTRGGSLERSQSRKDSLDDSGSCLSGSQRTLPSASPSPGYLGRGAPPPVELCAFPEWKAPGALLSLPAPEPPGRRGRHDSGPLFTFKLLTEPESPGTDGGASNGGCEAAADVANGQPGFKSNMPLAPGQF

[2] = target: T2, human α1D‐adrenoceptor (full length) (Homo sapiens, UniProt P25100); experiment: Intracellular free calcium mobilization, CHO‐α1D cells; format: cell-based
T2 construct: human α1D‐adrenoceptor (full length) were used; expressed in transfected cells; host or cells: CHO-K1
T2 sequence (P25100 1-572): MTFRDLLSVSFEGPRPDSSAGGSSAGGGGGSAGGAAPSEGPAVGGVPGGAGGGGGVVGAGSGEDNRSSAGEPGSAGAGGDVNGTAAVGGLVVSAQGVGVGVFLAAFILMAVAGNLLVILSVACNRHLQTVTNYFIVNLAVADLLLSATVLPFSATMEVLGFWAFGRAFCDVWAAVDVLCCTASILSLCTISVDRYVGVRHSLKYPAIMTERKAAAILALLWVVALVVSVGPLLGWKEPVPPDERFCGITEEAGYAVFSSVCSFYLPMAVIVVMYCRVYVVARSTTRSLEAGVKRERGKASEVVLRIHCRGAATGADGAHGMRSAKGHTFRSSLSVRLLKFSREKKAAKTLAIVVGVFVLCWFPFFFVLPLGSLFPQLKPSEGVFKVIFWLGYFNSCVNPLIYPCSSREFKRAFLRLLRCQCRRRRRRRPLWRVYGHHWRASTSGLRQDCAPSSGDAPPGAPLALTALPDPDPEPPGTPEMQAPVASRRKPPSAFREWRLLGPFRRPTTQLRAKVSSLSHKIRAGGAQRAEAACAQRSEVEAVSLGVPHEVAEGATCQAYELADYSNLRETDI

[3] = target: T2, human α1D‐adrenoceptor (full length); experiment: ERK1/2‐phosphorylation (Surefire Alphascreen), CHO‐α1D cells; format: cell-based
human α1B‐adrenoceptor [4] = target: T1, human α1B‐adrenoceptor; experiment: ^3H‐cAMP accumulation, CHO‐α1B cells; format: cell-based
human α1B‐adrenoceptor [5] = target: T1, human α1B‐adrenoceptor; experiment: ^3H‐cAMP accumulation in the presence of 10 μM forskolin, CHO‐α1B cells; format: cell-based
[6] = target: T2, human α1D‐adrenoceptor (full length); experiment: ^3H‐cAMP accumulation in the presence of 10 μM forskolin, CHO‐α1D cells; format: cell-based; details: CHO‐α1D cells
[7] = tested on: parental CHO cell line without any transfected receptors; experiment: ^3H‐cAMP accumulation, parent CHO cells without transfected receptors; format: cell-based, Chinese hamster
human α1B‐adrenoceptor [8] = target: T1, human α1B‐adrenoceptor; experiment: Intracellular free calcium mobilization, CHO‐α1B cells; format: cell-based
[9] = target: T2, human α1D‐adrenoceptor (full length); experiment: ^3H‐cAMP accumulation, CHO‐α1D cells; format: cell-based; details: cAMP accumulation without forskolin
[10] = tested on: parental CHO cell line without any transfected receptors; experiment: Intracellular calcium mobilization, parent CHO cells without transfected receptors; format: cell-based, Chinese hamster; details: Cricetulus griseus, CHO, read-out: Intracellular calcium release % ionomycin
[11] = target: T2, human α1D‐adrenoceptor (full length); experiment: ^3H‐prazosin whole‐cell radioligand binding, CHO‐α1D cells
human α1A‐adrenoceptor [12] = target: T3, human α1A‐adrenoceptor (Homo sapiens, UniProt P35348); experiment: ^3H‐cAMP accumulation in the presence of 10 μM forskolin, CHO‐α1A cells; format: cell-based
T3 construct: expressed in transfected cells; host or cells: CHO-K1
T3 sequence (P35348 1-466): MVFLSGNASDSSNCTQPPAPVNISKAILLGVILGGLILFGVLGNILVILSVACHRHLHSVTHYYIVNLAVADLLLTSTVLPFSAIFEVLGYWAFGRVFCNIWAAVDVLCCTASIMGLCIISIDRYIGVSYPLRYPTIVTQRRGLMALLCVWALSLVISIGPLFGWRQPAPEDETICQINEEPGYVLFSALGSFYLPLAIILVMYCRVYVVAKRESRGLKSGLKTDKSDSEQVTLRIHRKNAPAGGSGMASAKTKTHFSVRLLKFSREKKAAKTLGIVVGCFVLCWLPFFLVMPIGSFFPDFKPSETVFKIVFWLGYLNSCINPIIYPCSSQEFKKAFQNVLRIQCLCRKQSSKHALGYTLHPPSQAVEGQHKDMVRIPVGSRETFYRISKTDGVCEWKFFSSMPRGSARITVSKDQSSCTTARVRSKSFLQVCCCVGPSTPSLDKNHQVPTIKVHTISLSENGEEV

human α1A‐adrenoceptor [13] = target: T3, human α1A‐adrenoceptor; experiment: ERK1/2‐phosphorylation (Surefire Alphascreen), CHO‐α1A cells; format: cell-based
human α1A‐adrenoceptor [14] = target: T3, human α1A‐adrenoceptor; experiment: Intracellular free calcium mobilization, CHO‐α1A cells; format: cell-based
human α1A‐adrenoceptor [15] = target: T3, human α1A‐adrenoceptor; experiment: ^3H‐prazosin whole‐cell radioligand binding, CHO‐α1A cells
[16] = tested on: parental CHO cell line without any transfected receptors; experiment: Forskolin‐stimulated cAMP accumulation, parent CHO cells without transfected receptors; format: cell-based, Chinese hamster
[17] = tested on: parental CHO cell line without any transfected receptors; experiment: ERK1/2‐phosphorylation, parent CHO cells without transfected receptors; format: cell-based, Chinese hamster
human α1B‐adrenoceptor [18] = target: T1, human α1B‐adrenoceptor; experiment: ^3H‐prazosin whole‐cell radioligand binding, CHO‐α1B cells
human α1A‐adrenoceptor [19] = target: T3, human α1A‐adrenoceptor; experiment: ^3H‐cAMP accumulation, CHO‐α1A cells; format: cell-based
human α1B‐adrenoceptor [20] = target: T1, human α1B‐adrenoceptor; details: CHO‐α1B cells; printed as IC50> log value; ligand marked ^a; ref Proudman et al., 2020; cited from earlier work

C=CCc1ccccc1OC(C)C1=NCCN1 (centres unmarked) [Allyphenyline]
EC50 (human α1B‐adrenoceptor [1]): 282 nM
ERK1/2‐phosphorylation % PDBu (human α1B‐adrenoceptor [1]): 65.3 ± 3.0%
EC50 [2]: 316 nM
Intracellular calcium release % ionomycin [2]: 12.3 ± 1.4%
Log efficacy ratio KD /EC50 [2]: 0.65
EC50 [3]: 6920 nM
ERK1/2‐phosphorylation % PDBu [3]: 29.1 ± 4.7%
EC50 (human α1B‐adrenoceptor [4]): 174 nM
cAMP accumulation % forskolin (human α1B‐adrenoceptor [4]; CHO‐α1B cells, % forskolin maximum response): 5.5 ± 0.9%
EC50 (human α1B‐adrenoceptor [5]): 51.3 nM
cAMP accumulation (in presence of forskolin) Fold increase (human α1B‐adrenoceptor [5]; CHO‐α1B cells, fold increase of the forskolin response): 1.87 ± 0.07 fold
cAMP (in presence of forskolin) Fold increase ([6]; fold increase of the forskolin response): No response
cAMP (in presence of forskolin) Log EC50 ([6]; in presence of forskolin, log values given negative): No response
cAMP accumulation % forskolin [7]: No response
EC50 (human α1B‐adrenoceptor [8]): 79.4 nM
Intracellular calcium release % ionomycin (human α1B‐adrenoceptor [8]): 39.9 ± 1.9%
Log efficacy ratio KD /EC50 (human α1B‐adrenoceptor [8]): 1.99
cAMP Log EC50 [9]: No response
Emax [10]: 5.9 ± 1%
Affinity selectivity ratio α1B vs α1D [11]: 5.5 fold
Kd [11]: 1410 nM
EC50 (human α1A‐adrenoceptor [12]): 7.94 nM
cAMP accumulation (in presence of forskolin) Fold increase (human α1A‐adrenoceptor [12]; CHO‐α1A cells, fold increase of the forskolin response): 2.38 ± 0.08 fold
EC50 (human α1A‐adrenoceptor [13]): 1.58 nM
ERK1/2‐phosphorylation % PDBu (human α1A‐adrenoceptor [13]): 79.3 ± 3.5%
EC50 (human α1A‐adrenoceptor [14]): 2.95 nM
Intracellular calcium release % ionomycin (human α1A‐adrenoceptor [14]): 58.6 ± 3.0%
Log efficacy ratio KD /EC50 (human α1A‐adrenoceptor [14]): 1.74
Affinity selectivity ratio α1A vs α1B (human α1A‐adrenoceptor [15]): 47.9 fold
Affinity selectivity ratio α1A vs α1D (human α1A‐adrenoceptor [15]): 8.7 fold
Kd (human α1A‐adrenoceptor [15]): 162 nM
cAMP accumulation (in presence of forskolin) % forskolin-stim cAMP [16]: No response
cAMP accumulation (in presence of forskolin) Log EC50 [16]: No response
Emax at 100 µM ([17]; Cricetulus griseus, CHO, read-out: ERK1/2-phosphorylation % PDBu at 100μM): 12.7 ± 3.1%
Kd (human α1B‐adrenoceptor [18]): 7760 nM
EC50 (human α1A‐adrenoceptor [19]): 89.1 nM
cAMP accumulation % forskolin (human α1A‐adrenoceptor [19]; CHO‐α1A cells, % of 10 µM forskolin response): 82.4 ± 5.5%

CC(C)(C)NCC(O)COc1cccc2[nH]c(=O)[nH]c12 (centres unmarked) [CGP 12177]
ERK1/2‐phosphorylation % PDBu (human α1B‐adrenoceptor [1]; CHO‐α1B cells, maximal response as % PDBu response, for bi‐phasic responses the initial stimulatory part): 38.1 ± 3.8%
Intracellular calcium release Log EC50 ([2]; CHO‐α1D cells, log values given negative): No response
Intracellular calcium release % ionomycin ([2]; CHO‐α1D cells, maximal response as % of 10 µM ionomycin): No response
ERK1/2‐phosphorylation % PDBu ([3]; CHO‐α1D cells, maximal response as % of PDBu): 25.8 ± 3.2%
Intracellular calcium release Log EC50 (human α1B‐adrenoceptor [8]; CHO‐α1B cells, given as log EC50 (negative numbers)): No response
Intracellular calcium release % ionomycin (human α1B‐adrenoceptor [8]; CHO‐α1B cells, maximal response as % of 10 µM ionomycin response): No response
Log IC50 α1B, ^3H‐prazosin whole cell binding (human α1B‐adrenoceptor [20]): IC50>−4
Affinity selectivity ratio α1B vs α1D [11]: >1.6 fold
ERK1/2‐phosphorylation % PDBu (human α1A‐adrenoceptor [13]; CHO‐α1A cells, % of 10 µM PDBu, ^a bi‐phasic: initial stimulatory part): 86.8 ± 2.6%
Log efficacy ratio KD /EC50 (human α1A‐adrenoceptor [14]): 1.04
EC50 (human α1A‐adrenoceptor [14]; CHO‐α1A cells, given as log EC50 (negative), read-out: Intracellular calcium release Log EC50 (converted)): 661 nM
Intracellular calcium release % ionomycin (human α1A‐adrenoceptor [14]; CHO‐α1A cells, maximal response as % of 10 µM ionomycin): 37.0 ± 2.8%
Affinity selectivity ratio α1A vs α1B (human α1A‐adrenoceptor [15]): >13.8 fold
Emax ([17]; Cricetulus griseus, CHO cells without transfected receptors, maximal response as % of PDBu (10μM) response, mean ± s.e.m., read-out: ERK1/2-phosphorylation % PDBu): 22.8 ± 4.3%
EC50 ([17]; Cricetulus griseus, CHO cells without transfected receptors, mean ± s.e.m., read-out: ERK1/2-phosphorylation Log EC50 (converted)): 977 nM
ERK1/2‐phosphorylation response in parent CHO cells ([17]; untransfected cells): stimulated ERK1/2‐phosphorylation responses
